Like-named read-outs stand apart in the source and are kept apart here.
Assay: Pharmacokinetics in female BALB/c nude mice bearing A375 xenografts, 1 day dosing (PK and PD study): plasma, tumor and brain concentrations, AUC
Assay type: in vivo
Excerpt: The concentrations of Dabrafenib, Compound 26 and Compound 141 in the treatment of female BALB/c nude mice bearing A375 xenografts are shown in Table 62-Table 72 and FIG. 52-FIG. 73.

[1] = 0.75 mg/kg p.o. BID × 1 day, post 2nd dose, 48 h, BQL: below the lower limit of quantitation
[2] = 1 mg/kg p.o. TID × 1 day, post 3rd dose, 48 h, BQL: below the lower limit of quantitation
[3] = Compound 141, 1.5 mg/kg p.o. BID × 1 day, post 2nd dose, 36 h, BQL: below the lower limit of quantitation
[4] = Compound 141, 1.5 mg/kg p.o. BID × 1 day, post 2nd dose, 48 h, BQL: below the lower limit of quantitation
[5] = mouse, brain, po, 0.75 mg/kg, 0.75 mg/kg p.o. BID × 1 day, post 2nd dose, read-out: Mean Concentration in Brain ± SEM
[6] = mouse, brain, po, 1 mg/kg, 1 mg/kg p.o. TID × 1 day, post 3rd dose, read-out: Mean Concentration in Brain ± SEM
[7] = mouse, brain, po, 1.5 mg/kg, Compound 141, 1.5 mg/kg p.o. BID × 1 day, post 2nd dose, read-out: Mean Concentration in Brain ± SEM
[8] = mouse, brain, po, 3 mg/kg, 3 mg/kg p.o. QD × 1 day, read-out: Mean Concentration in Brain ± SEM
[9] = mouse, brain, po, 5 mg/kg, 5 mg/kg p.o. BID × 1 day, post 2nd dose, read-out: Mean Concentration in Brain ± SEM
[10] = mouse, plasma, po, 0.75 mg/kg, 0.75 mg/kg p.o. BID × 1 day, post 1st dose, read-out: Mean Concentration in Plasma ± SEM
[11] = mouse, plasma, po, 0.75 mg/kg, 0.75 mg/kg p.o. BID × 1 day, post 2nd dose, read-out: Mean Concentration in Plasma ± SEM
[12] = mouse, plasma, po, 1 mg/kg, 1 mg/kg p.o. TID × 1 day, post 1st dose, read-out: Mean Concentration in Plasma ± SEM
[13] = mouse, plasma, po, 1 mg/kg, 1 mg/kg p.o. TID × 1 day, post 2nd dose, read-out: Mean Concentration in Plasma ± SEM
[14] = mouse, plasma, po, 1 mg/kg, 1 mg/kg p.o. TID × 1 day, post 3rd dose, read-out: Mean Concentration in Plasma ± SEM

## CCN(C)S(=O)(=O)Nc1ccc(F)c(Oc2ccc3ncn(C4CC5(CCN(C6CC7(C6)CN(c6cc8c(cc6F)c(N6CCC(=O)NC6=O)nn8C)C7)CC5)C4)c(=O)c3c2)c1C#N (stereo not shown) [Compound 141, 6-[2-cyano-3-[[ethyl(methyl)sulfamoyl]amino]-6-fluoro-phenoxy]-3-[7-[2-[3-(2,4-dioxohexahydropyrimidin-1-yl)-5-fluoro-1-methyl-indazol-6-yl]-2-azaspiro[3.3]heptan-6-yl]-7-azaspiro[3.5]nonan-2-yl]-4-oxo-quinazoline]
0.75 mg/kg p.o. BID × 1 day, post 2nd dose, 24 h, BQL: below the lower limit of quantitation
  Mean Concentration in Brain ± SEM: BQL^a
[1]
  Mean Concentration in Brain ± SEM: BQL
  Mean Concentration in Tumor ± SEM: BQL
1 mg/kg p.o. TID × 1 day, post 3rd dose, 24 h, BQL: below the lower limit of quantitation
  Mean Concentration in Brain ± SEM: BQL^a
[2]
  Mean Concentration in Brain ± SEM: BQL
  Mean Concentration in Plasma ± SEM: BQL
3 mg/kg p.o. QD × 1 day, 48 h, BQL: below the lower limit of quantitation
  Mean Concentration in Plasma ± SEM: BQL^a
5 mg/kg p.o. BID × 1 day, post 2nd dose, 24 h, BQL: below the lower limit of quantitation
  Mean Concentration in Brain ± SEM: BQL^a
Compound 141, 1.5 mg/kg p.o. BID × 1 day, post 2nd dose, 24 h, BQL: below the lower limit of quantitation
  Mean Concentration in Brain ± SEM: BQL^a
[3]
  Mean Concentration in Brain ± SEM: BQL
  Mean Concentration in Plasma ± SEM: BQL
[4]
  Mean Concentration in Brain ± SEM: BQL
  Mean Concentration in Plasma ± SEM: BQL
[5]
  concentration at 1 h: 26.7 ± 2.39 ng/g
  concentration at 4 h: 10.2 ± 1.3 ng/g
  concentration at 10 h: 6.61 ± 2 ng/g
[6]
  concentration at 1 h: 22 ± 3.26 ng/g
  concentration at 4 h: 17.9 ± 3.94 ng/g
  concentration at 10 h: 14.6 ± 3.36 ng/g
[7]
  concentration at 0.25 h: 11.2 ± 1.24 ng/g
  concentration at 0.5 h: 25.5 ± 2.96 ng/g
  concentration at 1 h: 44.1 ± 5.96 ng/g
  concentration at 2 h: 39.3 ± 0.318 ng/g
  concentration at 4 h: 23.5 ± 4.95 ng/g
  concentration at 10 h: 3.51 ± 1.17 ng/g
[8]
  concentration at 1 h: 70.5 ± 4.29 ng/g
  concentration at 4 h: 37.6 ± 9.11 ng/g
  concentration at 10 h: 11 ± 1.97 ng/g
mouse, brain, po, 3 mg/kg, 3 mg/kg p.o. QD × 1 day, 24 h, read-out: Mean Concentration in Brain ± SEM
  concentration at 24 h: 3.31 ng/g
mouse, brain, po, 3 mg/kg, 3 mg/kg p.o. QD × 1 day, 48 h, read-out: Mean Concentration in Brain ± SEM
  concentration at 48 h: 1.79 ng/g
[9]
  concentration at 1 h: 126 ± 6.12 ng/g
  concentration at 4 h: 52.9 ± 12.8 ng/g
  concentration at 10 h: 13.1 ± 2.79 ng/g
mouse, brain, po, 5 mg/kg, 5 mg/kg p.o. BID × 1 day, post 2nd dose, 48 h, read-out: Mean Concentration in Brain ± SEM
  concentration at 48 h: 4 ng/g
[10]
  concentration at 0.25 h: 340 ± 19 ng/mL
  concentration at 0.5 h: 832 ± 61.1 ng/mL
  concentration at 1 h: 1070 ± 94.7 ng/mL
  concentration at 2 h: 972 ± 13.5 ng/mL
  concentration at 4 h: 491 ± 20.2 ng/mL
  concentration at 8 h: 66.3 ± 5.93 ng/mL
mouse, plasma, po, 0.75 mg/kg, 0.75 mg/kg p.o. BID × 1 day, post 1st dose, 12 h, read-out: Mean Concentration in Plasma ± SEM
  concentration at 12 h: 26.5 ± 4.92 ng/mL
[11]
  concentration at 0.25 h: 297 ± 13.2 ng/mL
  concentration at 0.5 h: 502 ± 84.1 ng/mL
  concentration at 1 h: 778 ± 59.4 ng/mL
  concentration at 2 h: 818 ± 118 ng/mL
  concentration at 4 h: 247 ± 24.5 ng/mL
  concentration at 10 h: 111 ± 18.4 ng/mL
mouse, plasma, po, 0.75 mg/kg, 0.75 mg/kg p.o. BID × 1 day, post 2nd dose, 24 h, read-out: Mean Concentration in Plasma ± SEM
  concentration at 24 h: 1.09 ± 0.203 ng/mL
mouse, plasma, po, 0.75 mg/kg, 0.75 mg/kg p.o. BID × 1 day, post 2nd dose, 36 h, read-out: Mean Concentration in Plasma ± SEM
  concentration at 36 h: 0.764 ng/mL
mouse, plasma, po, 0.75 mg/kg, 0.75 mg/kg p.o. BID × 1 day, post 2nd dose, 48 h, read-out: Mean Concentration in Plasma ± SEM
  concentration at 48 h: 4.96 ng/mL
[12]
  concentration at 0.25 h: 438 ± 25.4 ng/mL
  concentration at 0.5 h: 836 ± 10.8 ng/mL
  concentration at 1 h: 1130 ± 180 ng/mL
  concentration at 2 h: 1000 ± 55.2 ng/mL
  concentration at 4 h: 699 ± 129 ng/mL
  concentration at 8 h: 242 ± 30.4 ng/mL
[13]
  concentration at 0.25 h: 334 ± 54.7 ng/mL
  concentration at 2 h: 879 ± 74.6 ng/mL
  concentration at 8 h: 218 ± 16.3 ng/mL
[14]
  concentration at 0.25 h: 346 ± 65.5 ng/mL
  concentration at 0.5 h: 694 ± 54.4 ng/mL
  concentration at 1 h: 664 ± 72 ng/mL
  concentration at 2 h: 1600 ± 124 ng/mL
  concentration at 4 h: 563 ± 173 ng/mL
  concentration at 10 h: 415 ± 74.4 ng/mL
mouse, plasma, po, 1 mg/kg, 1 mg/kg p.o. TID × 1 day, post 3rd dose, 24 h, read-out: Mean Concentration in Plasma ± SEM
  concentration at 24 h: 10.5 ± 5.67 ng/mL
mouse, plasma, po, 1 mg/kg, 1 mg/kg p.o. TID × 1 day, post 3rd dose, 36 h, read-out: Mean Concentration in Plasma ± SEM
  concentration at 36 h: 3.2 ± 0.392 ng/mL
